Measured values from article PMC8126888 (RSC Medicinal Chemistry, 2020).
Like-named read-outs stand apart in the source and are kept apart here.

Columns and labels:
[1] = system: primary peritoneal mouse macrophages (PMM); test: cells; conditions: Macrophage
in vitro [2] = conditions: human, microsomes, human liver microsomes
in vitro [3] = conditions: human
in vitro [4] = conditions: PAMPA
[5] = system: Leishmania infantum MHOM/MA(BE)/67/ITMAP263 intracellular amastigotes; test: microbe, parasite or virus in culture; conditions: Macrophage, in Mus musculus
[6] = system: Trypanosoma cruzi, Tulahuen CL2, beta-galactosidase strain; test: microbe, parasite or virus in culture
physchem = conditions: HPLC, Ascentis Express RP Amide column, pH 7.4, eLogD, experimental
in vitro [7] = conditions: mouse, microsomes, pH 7.4, MLM CLint (uL/min/mg), mouse liver microsomes
in vitro [8] = conditions: human, HFF-1 cells
in vitro [9] = conditions: human, HepG2 cells
in vitro [10] = conditions: PAMPA; remark: listed apart in the source
[11] = read-out: L. Inf. pIC50, from L. infantum intracellular amastigote IC50 (converted)
[12] = read-out: L. infantum MHOM/MA(BE)/67/ITMAP263 intracellular amastigotes IC50, intracellular amastigotes
[13] = MRC5, read-out: T. cruzi Tulahuen C4 (LacZ) IC50
[14] = read-out: L. infantum MHOM/MA(BE)/67/ITMAP263 intracellular amastigotes IC50 (uM), intracellular amastigotes
[15] = MRC5, read-out: T. cruzi Tulahuen C4 (LacZ) IC50 (uM)

| Structure (SMILES) | IC50 ([1]; read-out: PMM IC50) [µM] | microsomal CLint at 0.5 μM (in vitro [2]; pH 7.4, HLM CLint) [µL/min/mg] | CC50 at 3 days (in vitro [3]) [µM] | Papp (in vitro [4]) [×10⁻⁶ cm/s] | IC50 [5, 11] [µM] | IC50 [5, 12] [µM] | IC50 [6, 13] [µM] | chromatographic logD (physchem) | IC50 ([1]; read-out: PMM IC50 (uM)) [µM] | microsomal CLint at 0.5 μM (in vitro [2]; pH 7.4, HLM CLint (uL/min/mg)) [µL/min/mg] | microsomal CLint at 0.5 μM (in vitro [7]) [µL/min/mg] | CC50 (in vitro [8]) [µM] | CC50 (in vitro [9]) [µM] | Papp (in vitro [10]) [×10⁻⁶ cm/s] | IC50 [5, 14] [µM] | IC50 [6, 15] [µM] |
| --- | --- | --- | --- | --- | --- | --- | --- | --- | --- | --- | --- | --- | --- | --- | --- | --- |
| COc1ncccc1S(=O)(=O)N(Cc1ccccc1)Cc1ccccc1 [DNDI0003368299] | > 64 | 849 | 3.81 | 2.05 | 0.646 | 0.64 | 6.34 |  |  |  |  |  |  |  |  |  |
| COc1ccc(C(=O)O)cc1S(=O)(=O)N(Cc1ccccc1)Cc1ccccc1 [DNDI0003368287] | > 64 | < 23 | > 64 | 17.8 | 57.5 | 57 | > 64 |  |  |  |  |  |  |  |  |  |
| COc1ccc(OC)c(S(=O)(=O)N(Cc2ccc(F)cc2)Cc2nc(C)no2)c1 [DNDI0003368295] | > 64 | 350 | > 64 | 8.92 | 7.76 | 7.75 | 30 |  |  |  |  |  |  |  |  |  |
| O=S1(=O)NC(Cc2ccccc2)COc2ccc(F)cc21 (centres unmarked) [DNDI0003368460] | > 64 |  | > 64 | 26.2 | > 64 | > 64 | > 64 | 3.3 |  |  |  |  |  |  |  |  |
| COc1ccc(OC)c(S(=O)(=O)N(Cc2ccccc2)C2CCCN(C(C)=O)C2)c1 (centres unmarked) [DNDI0003367307] | > 64 |  | > 64 | 16.4 | > 64 | > 64 | 54.3 | 3.3 |  |  |  |  |  |  |  |  |
| CN(C)CCN(Cc1ccccc1)S(=O)(=O)c1ccc(N)cc1 [DNDI0003368290] | > 64 | 56 | > 64 | 0.88 | > 64 | > 64 | > 64 | 2.5 |  |  |  |  |  |  |  |  |
| C=C(c1ccc(F)cc1)N(Cc1ccccc1)S(=O)(=O)c1cc(Cl)ccc1O [DNDI0003371156] | 8 |  | 3.61 | 1.41 | 7.41 | 7.44 | 2.26 | 5.1 |  |  |  |  |  |  |  |  |
| COc1ccc(N2CCN(C)CC2)cc1S(=O)(=O)N(Cc1ccc(F)cc1)Cc1ccc(F)cc1 [DNDI0003389645] |  |  | 28.7 |  | 0.398 |  |  | 4.4 | 8 | 152 | 212 | 8.45 | 26.8 | 0.71 | 0.4 | 2.8 |
| COCCN(Cc1ccc(F)cc1)S(=O)(=O)c1cc(C#N)ccc1OC [DNDI0003368395] | > 64 | < 23 | > 64 | 15.3 | 8.91 | 8.88 | > 64 |  |  |  |  |  |  |  |  |  |
| O=S(=O)(c1cccnc1N1CCOCC1)N(Cc1ccc(F)cc1)Cc1ccc(F)cc1 [DNDI0003389119] |  |  | > 64 |  | 2.82 |  |  | 4.5 | > 64 | 823 | 738 | 29.4 | > 64 | 3.63 | 2.83 | 15.1 |
| COc1ccc(CN(Cc2ccc(F)cc2)S(=O)(=O)c2cc(F)ccc2OCCN(C)C)cc1 [DNDI0003378485] |  |  | 6.43 |  | 3.24 |  |  | 5 | 8 | 183 | 1080 | 1.95 | 9.1 | 0.29 | 3.24 | 6.96 |
| COc1ccc(C(=O)N2CCOCC2)cc1S(=O)(=O)N(Cc1ccccc1)Cc1ccccc1 [DNDI0003368296] | 45.2 | 810 | > 64 | 6.19 | 0.457 | 0.46 | > 64 |  |  |  |  |  |  |  |  |  |
| COc1ccccc1S(=O)(=O)N(Cc1ccccc1)CC(O)c1ccc(F)cc1 (centres unmarked) [DNDI0003389317] |  |  | 40.7 |  | 11.5 |  |  | 4.1 | > 64 | 610 | 1240 | 10.5 | > 64 | 11.8 | 11.6 | 26.6 |
| COc1ccc(-c2nc(C)no2)cc1S(=O)(=O)N(Cc1ccc(F)cc1)Cc1ccc(F)cc1 [DNDI0003388085] |  |  | > 64 |  | 5.62 |  |  | 4.6 | > 64 | 177 | 739 | 38.6 | > 64 | 1.74 | 5.68 | > 64 |
| COc1ccc(C#N)cc1S(=O)(=O)N(Cc1ccccc1)Cc1ccccc1 [DNDI0003366138] | > 64 | 304 | 40.4 | 3.93 | 0.437 | 0.44 | 8.16 |  |  |  |  |  |  |  |  |  |
| CN(C)CCN(Cc1ccccc1)S(=O)(=O)c1ccccc1S(C)(=O)=O [DNDI0003367255] | > 64 |  | > 64 | 2.04 | > 64 | > 64 | > 64 | 2.6 |  |  |  |  |  |  |  |  |
| COc1ccc(C(=O)N2CCOCC2)cc1S(=O)(=O)N(Cc1ccc(F)cc1)Cc1ccccc1Cl [DNDI0003389128] |  |  | 36.8 |  | 1.41 |  |  | 4.1 | > 64 | 351 | 1660 | 10.5 | > 64 | 9 | 1.4 | 9.66 |
| COc1ccc(CNC2COC2)cc1S(=O)(=O)N(Cc1ccc(F)cc1)Cc1ccc(F)cc1 [DNDI0003389115] |  |  | 41.7 |  | 1.78 |  |  | 4 | > 64 | 147 | 384 | 51.7 | > 64 | 3.42 | 1.79 | 14.4 |
| COC(=O)C(Cc1ccccc1)NS(=O)(=O)c1ccccc1Br (centres unmarked) [DNDI0003369003] | > 64 |  | > 64 | 20.4 | > 64 | > 64 | 58 | 3.4 |  |  |  |  |  |  |  |  |
| O=S(=O)(c1ccccn1)N(Cc1ccccc1)Cc1ccccc1 [DNDI0003389646] |  |  | > 64 |  | 16.2 |  |  | 4 | > 64 | 218 | 449 | 33.8 | > 64 | 9.55 | 16.1 | 27.7 |
